Test results from US7122621B2, “Anti-cellular proliferative disorder polypeptide” (Academia Sinica, priority 2003, dated 2006).
Like-named read-outs stand apart in the source and are kept apart here. No end group written: not given here.

Columns and labels:
HL-60 = test: cells
Protocol: (§1) To evaluate the cell lysis activity of CHM1, a cytotoxcity assay was conducted according to the method described in Chen H. et al., Biochim. Biophys. Acta 1336:171–179, 1997 and Wang W. et al., J. Biol. Chem. 273:27438–27448, 1998.
(§2) Anchorage-independent normal cells such as red blood cells and lymphoblast RPMI 7666 cells, and leukemia cell lines such as CCRF-CEM, HL-60, and Jurkat, K-562 cells were respectively maintained in RMPI-1640 culture media containing 10% FBS, 100 unit/ml penicillin G, and 100 μg/ml streptomycin. Cells of each type were seeded at 1×10^5/ml into a 25 cm^2 flask (Falcon) and cultured at 37° C. in the presence of 5% CO2 for two days. The cells were then centrifuged at 1000 rpm for 5 min. The resultant pellet was washed twice with the just-mentioned culture medium, resuspended in an RMPI-1640 medium containing 0.5% FBS, and cultured overnight.
(§3) Each of the above-prepared cell suspensions was adjusted so that it contained 1×10^5 cells/ml before being transferred into 9 wells of a 96-well plate (90 μl/well). The suspension in each well was mixed with 10 ul of a culture medium containing CHM1 freshly prepared from a […] stock solution so that the final concentrations in the 9 wells were 0, 1, 5, 10, 15, 20, 30, 50, and 100 μM, respectively. Triplicates for each well were set up. After incubating for 24 hours, a microtetrazolium (MTT)-based colorimetric assay was conducted. It is known that MTT can be metabolized by mitochondrial dehydrogenases in metabolically active cells to form a formazan salt, which has a strong absorption at 570 nm. To conduct the assay, 20 μl of a solution containing 5 mg/ml MTT (Boehringer Mannheim) was added to each of the wells mentioned above and a well containing 100 μl of PBS. The latter was used as a blank control. After incubating for 4 hours, 100 μl of a solution containing 10% SDS and […] HCl was added to each well. The plate was then incubated at 37° C. overnight. The absorbance at 570 nm of the mixture in each well was measured using a Bio-Rad model 450 microtiter plate reader. An average cell survival rate of each triplicate was determined based on the corresponding ΔA570nm relative to that of the well containing 0 μM CHM1. The survival rates thus obtained were plotted against corresponding CHM1 concentrations to form a cell survival curve and derive the IC50. Using the same procedure, also determined were the IC50s of other lytic polypeptides, such as cecropin B (CB), cecropin B1 (CB1), Melittin, and Magainin II, and cancer chemotherapeutic agents, such as doxorubicin (DOX), vincristine (VCR), methotrexate (MTX), 5-fluorouracil (5-Fu), cytarabine (Ara-C), 6-mercaptopurine (6-MP). At least three independent experiments were conducted for each of the polypeptides and agents.

[1] = test system: lymphoblast RPMI 7666 cells; test: cells
Protocol: as §1, §2, §3

CCRF-SB = test: MTT-based cytotoxicity assay, CCRF-SB cancer cells; format: cell-based; settings: Homo sapiens, Table 2, 24 hours incubation
Protocol: as §1, §3

CCRF-CEM = test: cells
Protocol: as §1, §2, §3

Jurkat = test: cells
Protocol: as §1, §2, §3

K-562 = test: cells
Protocol: as §1, §2, §3

[2] = test system: stomach carcinoma (AGS) cells; test: cells
Protocol: as §1
(§4) Anchorage-dependent cells such as tissue cells (3T3 cells) or stomach carcinoma (AGS) cells were seeded at 1×10^4 cells/ml into a 25-cm^2 flask containing D-MEM medium supplemented with 10% FBS, 100 unit/ml penicillin G, and 100 μg/ml streptomycin. Cells were grown to about 80% confluence before being trypsinized. The trypsinized cells were resuspended in a D-MEM medium containing 0.5% FBS.
as §3

tissue cells (3T3 cells) = test: cells
Protocol: as §1, §4, §3

red blood cells (RBCs) = test: Hemolysis of red blood cells; format: cell-based; settings: 200 μM
Protocol: as §2
Effects of CHM1, melittin, CB, CB1 and doxorubicin on red blood cells (RBCs) were also examined. […] In fact, about 15% of RBCs lysed after being treated with CHM1 (200 μM). In contrast, about 100%, 57%, 55%, and 20% of RBCs lysed after being treated by melittin, CB, CB1, and doxorubicin, respectively, at the same concentration.

[3] = Homo sapiens, HL-60, 24 h, read-out: IC50, Cancer Cells HL-60
[4] = 24 h, read-out: IC50, Lymphoblasts RPMI 7666
[5] = read-out: IC50, Leukemia cells CCRF-CEM, 24 hours incubation, MTT
[6] = read-out: IC50, Leukemia cells HL-60, Table 1, 24 hours incubation, MTT
[7] = read-out: IC50, Leukemia cells Jurkat, 24 hours incubation, MTT
[8] = read-out: IC50, Leukemia cells K-562, 24 hours incubation, MTT
[9] = read-out: IC50, Stomach Carcinoma AGS, 24 hours incubation, MTT
[10] = read-out: IC50, Normal cells Tissue cells (3T3), 24 hours incubation, MTT
[11] = read-out: IC50, Normal cells Lymphoblast (RPMI7666), Table 1, 24 hours incubation, MTT

Compound: O=c1[nH]cc(F)c(=O)[nH]1 [5-FU, 5-fluorouracil]
- IC50 (HL-60; [3]): 7.6 ± 10.5 µM
- IC50 [1, 4]: 1.15 ± 0.4 µM
- IC50 (CCRF-SB): 123 ± 30.7 µM

Compound: Sc1ncnc2nc[nH]c12 [6-MP, 6-mercaptopurine]
- IC50 (HL-60; [3]): 0.43 ± 0.05 µM
- IC50 [1, 4]: 1.24 ± 0.3 µM
- IC50 (CCRF-SB): 0.44 ± 0.01 µM

Compound: Nc1ccn([C@@H]2O[C@H](CO)[C@@H](O)[C@@H]2O)c(=O)n1 [Ara-C, cytarabine]
- IC50 (HL-60; [3]): 0.08 ± 0.02 µM
- IC50 [1, 4]: 0.3 ± 0.1 µM
- IC50 (CCRF-SB): 0.1 ± 0.01 µM

Compound: COc1cccc2c1C(=O)c1c(O)c3c(c(O)c1C2=O)C[C@@](O)(C(=O)CO)C[C@@H]3O[C@H]1C[C@H](N)[C@H](O)[C@H](C)O1 [Doxorubicin, doxorubicin]
- IC50 (CCRF-CEM; Homo sapiens, CCRF-CEM, 24 h, read-out: IC50, Leukemia cells CCRF-CEM): 0.4 ± 0.1 µM
- IC50 (HL-60; [3]): 0.19 ± 0.01 µM
- IC50 (HL-60; Homo sapiens, HL-60, 24 h, read-out: IC50, Leukemia cells HL-60): 0.19 ± 0.01 µM
- IC50 (Jurkat; Homo sapiens, Jurkat, 24 h, read-out: IC50, Leukemia cells Jurkat): 0.4 ± 0.1 µM
- IC50 (K-562; Homo sapiens, K562, 24 h, read-out: IC50, Leukemia cells K-562): > 10 µM
- IC50 [1, 4]: 1.86 ± 0.1 µM
- IC50 ([1]; 24 h, read-out: IC50, Normal cells Lymphoblast (RPMI7666)): 1.9 ± 0.1 µM
- IC50 ([2]; Homo sapiens, AGS, 24 h, read-out: IC50, Stomach Carcinoma AGS): 4.1 ± 0.4 µM
- IC50 (tissue cells (3T3 cells); Mus musculus, NIH3T3, 24 h, read-out: IC50, Normal cells Tissue cells (3T3)): 2 ± 0.7 µM
- IC50 (CCRF-SB): 0.46 ± 0.07 µM
- RBCs lysed (red blood cells (RBCs)): ~20%

Compound: CN(Cc1cnc2nc(N)nc(N)c2n1)c1ccc(C(=O)N[C@@H](CCC(=O)O)C(=O)O)cc1 [MTX, methotrexate]
- IC50 (HL-60; [3]): 0.018 ± 0.01 µM
- IC50 [1, 4]: 0.132 ± 0.04 µM
- IC50 (CCRF-SB): 0.017 ± 0.01 µM

Compound: CC[C@H](C)[C@H](NC(=O)CN)C(=O)NCC(=O)N[C@@H](C)C(=O)N[C@H](C(=O)N[C@@H](CC(C)C)C(=O)N[C@@H](CCCCN)C(=O)N[C@H](C(=O)N[C@@H](CC(C)C)C(=O)N[C@H](C(=O)N[C@H](C(=O)NCC(=O)N[C@@H](CC(C)C)C(=O)N1CCC[C@H]1C(=O)N[C@@H](C)C(=O)N[C@@H](CC(C)C)C(=O)N[C@H](C(=O)N[C@@H](CO)C(=O)N[C@@H](Cc1c[nH]c2ccccc12)C(=O)N[C@H](C(=O)N[C@@H](CCCCN)C(=O)N[C@@H](CCCNC(=N)N)C(=O)N[C@@H](CCCCN)C(=O)N[C@@H](CCCNC(=N)N)C(=O)N[C@@H](CCC(N)=O)C(=O)N[C@@H](CCC(N)=O)C(N)=O)[C@@H](C)CC)[C@@H](C)CC)[C@@H](C)O)[C@@H](C)O)C(C)C)C(C)C [Melittin]
- IC50 (CCRF-CEM; [5]): 0.5 ± 0.02 µM
- IC50 (HL-60; [6]): 0.8 ± 0.02 µM
- IC50 (Jurkat; [7]): 2.5 ± 0.1 µM
- IC50 (K-562; [8]): 3.2 ± 0.3 µM
- IC50 [2, 9]: 0.6 ± 0.02 µM
- IC50 (tissue cells (3T3 cells); [10]): 6 ± 0.03 µM
- RBCs lysed (red blood cells (RBCs)): about 100%

Compound: CC[C@]1(O)C[C@H]2CN(CCc3c([nH]c4ccccc34)[C@@](C(=O)OC)(c3cc4c(cc3OC)N(C=O)[C@H]3[C@@](O)(C(=O)OC)[C@H](OC(C)=O)[C@]5(CC)C=CCN6CC[C@]43[C@@H]65)C2)C1 [VCR, vincristine]
- IC50 (HL-60; [3]): 0.034 ± 0.01 µM
- IC50 [1, 4]: 0.021 µM
- IC50 (CCRF-SB): 0.015 ± 0.01 µM

Compound: GIGKFLHSAKKFGKAFVGEIMNS [Magainin II]
- IC50 (CCRF-CEM; 24 h): 32.9 ± 0.9 µM
- IC50 (HL-60; 24 h): 38.3 ± 3.2 µM
- IC50 (Jurkat; 24 h): 44 ± 2.4 µM
- IC50 (K-562; 24 h): > 50 µM
- IC50 ([2]; 24 h): 28.7 ± 5 µM
- IC50 (tissue cells (3T3 cells); 24 h): > 50 µM

Compound: KWKVFKKIEKKWKVFKKIEKAGPKWKVFKKIEK [CHM1]
- IC50 (CCRF-CEM; 24 h): 4.4 ± 0.3 µM
- IC50 (HL-60; 24 h): 6.7 ± 1.1 µM
- IC50 (Jurkat; 24 h): 10.1 ± 1.2 µM
- IC50 (K-562; 24 h): 8.5 ± 0.6 µM
- IC50 [1, 11]: > 100 µM
- effect on normal lymphoblasts (in words) ([1]; summary of Table 1): little effect
- IC50 ([2]; 24 h): 5.6 ± 0.5 µM
- IC50 (tissue cells (3T3 cells); 24 h): > 50 µM
- effect on normal tissue cells (in words) (tissue cells (3T3 cells); summary of Table 1): little effect

Compound: KWKVFKKIEKMGRNIRNGIVKAGPAIAVLGEAKAL-NH2 [CB, cecropin B]
- IC50 (CCRF-CEM; 24 h): 11.7 ± 1.3 µM
- IC50 (HL-60; 24 h): 18.5 ± 1.7 µM
- IC50 (Jurkat; 24 h): 31.5 ± 3 µM
- IC50 (K-562; 24 h): > 50 µM
- IC50 [1, 11]: > 200 µM
- IC50 ([2]; 24 h): > 50 µM
- IC50 (tissue cells (3T3 cells); 24 h): > 50 µM

Compound: cecropin B1 [CB1]
- IC50 (CCRF-CEM; [5]): 4.7 ± 0.2 µM
- IC50 (HL-60; [6]): 8.1 ± 0.9 µM
- IC50 (Jurkat; [7]): 4 ± 0.4 µM
- IC50 (K-562; [8]): 15.6 ± 1.8 µM
- IC50 [1, 11]: > 200 µM
- IC50 [2, 9]: 7.1 ± 1.3 µM
- IC50 (tissue cells (3T3 cells); [10]): > 50 µM
